Laboratory results published in the NIST ThermoML archive (doi:10.1016/j.jct.2012.06.009).
Numbers after ± are expanded uncertainties. Each block holds one compound with its values, some of them ahead of it.

Test: activity coefficient (dimensionless); of the first substance listed, at infinite dilution; xn = mol fraction of the nth substance listed
Conditions: 101 kPa, Liquid, Chromatography, x1 = 0

SMILES: Clc1ccccc1 [chlorobenzene] + CCCCCCCCCCCCCC(=O)O
activity coefficient (314.1 K): 0.983 ± 0.081 | activity coefficient (314.24 K): 0.998 ± 0.082 | activity coefficient (333.26 K): 0.996 ± 0.082 | activity coefficient (333.38 K): 0.982 ± 0.081 | activity coefficient (353.25 K): 0.979 ± 0.081 | activity coefficient (353.3 K): 0.961 ± 0.079

SMILES: C1CCCCC1 [cyclohexane] + CCCCCCCCCC(=O)O
activity coefficient (314.1 K): 1.44 ± 0.12 | activity coefficient (314.24 K): 1.46 ± 0.12 | activity coefficient (333.26 K): 1.39 ± 0.12 | activity coefficient (333.38 K): 1.39 ± 0.12 | activity coefficient (353.25 K): 1.35 ± 0.12 | activity coefficient (353.3 K): 1.31 ± 0.11

SMILES: Cc1ccccc1 [toluene] + CCCCCCCCCCCCCC(=O)O
activity coefficient (338.27 K): 0.926 ± 0.076 | activity coefficient (338.29 K): 1.01 ± 0.083 | activity coefficient (348.2 K): 0.958 ± 0.079 | activity coefficient (358.33 K): 0.93 ± 0.077

SMILES: Clc1ccccc1 [chlorobenzene] + CCCCCCCCCC(=O)O
activity coefficient (333.26 K): 1.16 ± 0.096 | activity coefficient (333.38 K): 1.18 ± 0.098 | activity coefficient (353.25 K): 1.17 ± 0.097 | activity coefficient (353.3 K): 1.15 ± 0.096

SMILES: CC(C)=O [acetone] + CCCCCCCCCCCCCCCC(=O)O
activity coefficient (340.17 K): 1.49 ± 0.13 | activity coefficient (340.19 K): 1.49 ± 0.13 | activity coefficient (347.93 K): 1.41 ± 0.12 | activity coefficient (348.01 K): 1.42 ± 0.12 | activity coefficient (358.23 K): 1.32 ± 0.11 | activity coefficient (358.32 K): 1.34 ± 0.11

SMILES: CCc1ccccc1 [ethylbenzene] + CCCCCCCCCCCC(=O)O
activity coefficient (314.24 K): 1.22 ± 0.1 | activity coefficient (333.26 K): 1.2 ± 0.1 | activity coefficient (333.38 K): 1.19 ± 0.099 | activity coefficient (353.25 K): 1.18 ± 0.098 | activity coefficient (353.3 K): 1.18 ± 0.097

SMILES: ClCc1ccccc1 [(chloromethyl)benzene] + CCCCCCCCCCCC(=O)O
activity coefficient (358.06 K): 1.71 ± 0.15 | activity coefficient (358.1 K): 1.71 ± 0.15

SMILES: CCc1ccccc1 [ethylbenzene] + CCCCCCCCCCCCCC(=O)O
activity coefficient (338.27 K): 1.06 ± 0.087 | activity coefficient (348.3 K): 1.06 ± 0.087 | activity coefficient (358.33 K): 1.04 ± 0.085

SMILES: ClCCCl [1,2-dichloroethane] + CCCCCCCCCCCC(=O)O
activity coefficient (314.1 K): 1.38 ± 0.12 | activity coefficient (314.24 K): 1.37 ± 0.12 | activity coefficient (333.26 K): 1.3 ± 0.11 | activity coefficient (333.38 K): 1.32 ± 0.11 | activity coefficient (353.25 K): 1.23 ± 0.1

SMILES: ClC=C(Cl)Cl [trichloroethene] + CCCCCCCCCCCC(=O)O
activity coefficient (314.1 K): 0.952 ± 0.078 | activity coefficient (314.24 K): 0.967 ± 0.079 | activity coefficient (333.26 K): 0.944 ± 0.078 | activity coefficient (333.38 K): 0.951 ± 0.078 | activity coefficient (353.25 K): 0.933 ± 0.077

SMILES: C=CCCCC [hex-1-ene] + CCCCCCCCCCCC(=O)O
activity coefficient (329.2 K): 1.39 ± 0.12 | activity coefficient (343.39 K): 1.39 ± 0.12 | activity coefficient (358.06 K): 1.34 ± 0.11

SMILES: COc1ccccc1 [anisole] + CCCCCCCCCCCC(=O)O
activity coefficient (333.26 K): 1.37 ± 0.12 | activity coefficient (343.65 K): 1.35 ± 0.11 | activity coefficient (353.25 K): 1.33 ± 0.11 | activity coefficient (353.3 K): 1.35 ± 0.11

SMILES: ClC(Cl)Cl [trichloromethane] + CCCCCCCCCCCCCC(=O)O
activity coefficient (314.1 K): 0.743 ± 0.063 | activity coefficient (314.24 K): 0.743 ± 0.063 | activity coefficient (333.26 K): 0.739 ± 0.063 | activity coefficient (333.38 K): 0.74 ± 0.063 | activity coefficient (353.25 K): 0.746 ± 0.064 | activity coefficient (353.3 K): 0.727 ± 0.062

SMILES: COc1ccccc1 [anisole] + CCCCCCCCCCCCCC(=O)O
activity coefficient (314.1 K): 1.32 ± 0.11 | activity coefficient (314.24 K): 1.3 ± 0.11 | activity coefficient (333.26 K): 1.29 ± 0.11 | activity coefficient (333.38 K): 1.27 ± 0.11 | activity coefficient (353.25 K): 1.24 ± 0.1 | activity coefficient (353.3 K): 1.21 ± 0.1

SMILES: ClCCCl [1,2-dichloroethane] + CCCCCCCCCCCCCC(=O)O
activity coefficient (314.1 K): 1.21 ± 0.1 | activity coefficient (314.24 K): 1.24 ± 0.1 | activity coefficient (333.26 K): 1.2 ± 0.099 | activity coefficient (333.38 K): 1.18 ± 0.098 | activity coefficient (353.25 K): 1.13 ± 0.094 | activity coefficient (353.3 K): 1.13 ± 0.093

SMILES: CC(C)=O [acetone] + CCCCCCCCCC(=O)O
activity coefficient (314.1 K): 1.56 ± 0.13 | activity coefficient (333.26 K): 1.46 ± 0.12 | activity coefficient (333.38 K): 1.47 ± 0.12 | activity coefficient (353.25 K): 1.34 ± 0.11

SMILES: CC(C)=O [acetone] + CCCCCCCCCCCC(=O)O
activity coefficient (314.1 K): 1.59 ± 0.14 | activity coefficient (314.24 K): 1.59 ± 0.14 | activity coefficient (333.26 K): 1.45 ± 0.12 | activity coefficient (333.38 K): 1.47 ± 0.12 | activity coefficient (353.25 K): 1.33 ± 0.11 | activity coefficient (353.3 K): 1.36 ± 0.12

SMILES: COc1ccccc1 [anisole] + CCCCCCCCCC(=O)O
activity coefficient (353.25 K): 1.43 ± 0.12 | activity coefficient (353.3 K): 1.45 ± 0.12

SMILES: ClCc1ccccc1 [(chloromethyl)benzene] + CCCCCCCCCCCCCC(=O)O
activity coefficient (333.26 K): 1.61 ± 0.14 | activity coefficient (333.38 K): 1.6 ± 0.14 | activity coefficient (353.25 K): 1.57 ± 0.13 | activity coefficient (353.3 K): 1.55 ± 0.13

Further lines, results first:

activity coefficient (340.19 K): 1.29 ± 0.11 | activity coefficient (348.01 K): 1.3 ± 0.11 | activity coefficient (358.22 K): 1.3 ± 0.11
SMILES: CCCCCC [hexane] + CCCCCCCCCCCCCCCC(=O)O

activity coefficient (314.1 K): 1.28 ± 0.11 | activity coefficient (314.24 K): 1.3 ± 0.11 | activity coefficient (333.38 K): 1.17 ± 0.097 | activity coefficient (353.25 K): 1.06 ± 0.088 | activity coefficient (353.3 K): 1.08 ± 0.089
SMILES: CCC(C)O (configuration not stated) [butan-2-ol] + CCCCCCCCCCCC(=O)O

activity coefficient (314.1 K): 1.82 ± 0.16 | activity coefficient (314.24 K): 1.79 ± 0.15 | activity coefficient (333.26 K): 1.67 ± 0.14 | activity coefficient (333.38 K): 1.67 ± 0.14 | activity coefficient (353.25 K): 1.53 ± 0.13 | activity coefficient (353.3 K): 1.52 ± 0.13
SMILES: CCO [ethanol] + CCCCCCCCCCCCCC(=O)O

activity coefficient (314.24 K): 1.7 ± 0.14 | activity coefficient (333.26 K): 1.54 ± 0.13 | activity coefficient (333.38 K): 1.51 ± 0.13 | activity coefficient (353.25 K): 1.34 ± 0.11 | activity coefficient (353.3 K): 1.36 ± 0.11
SMILES: CCCCO [butan-1-ol] + CCCCCCCCCCCC(=O)O

activity coefficient (314.1 K): 1.33 ± 0.11 | activity coefficient (333.26 K): 1.25 ± 0.1 | activity coefficient (333.38 K): 1.3 ± 0.11 | activity coefficient (353.25 K): 1.21 ± 0.1
SMILES: CCOC(C)=O [ethyl acetate] + CCCCCCCCCC(=O)O

activity coefficient (314.1 K): 1.89 ± 0.16 | activity coefficient (314.24 K): 1.92 ± 0.17 | activity coefficient (333.26 K): 1.57 ± 0.13 | activity coefficient (333.38 K): 1.6 ± 0.14 | activity coefficient (353.25 K): 1.41 ± 0.12 | activity coefficient (353.3 K): 1.35 ± 0.12
SMILES: CCCO [propan-1-ol] + CCCCCCCCCC(=O)O

activity coefficient (314.1 K): 1.65 ± 0.14 | activity coefficient (314.24 K): 1.67 ± 0.14 | activity coefficient (333.26 K): 1.67 ± 0.14 | activity coefficient (333.38 K): 1.66 ± 0.14 | activity coefficient (353.25 K): 1.59 ± 0.14 | activity coefficient (353.3 K): 1.62 ± 0.14
SMILES: CCCCCCC [heptane] + CCCCCCCCCCCC(=O)O

activity coefficient (340.19 K): 1.4 ± 0.12 | activity coefficient (348.01 K): 1.38 ± 0.12 | activity coefficient (358.22 K): 1.37 ± 0.12
SMILES: CCCCCCC [heptane] + CCCCCCCCCCCCCCCC(=O)O

activity coefficient (340.19 K): 1.28 ± 0.11 | activity coefficient (347.93 K): 1.2 ± 0.1 | activity coefficient (358.22 K): 1.16 ± 0.096
SMILES: CCOC(C)=O [ethyl acetate] + CCCCCCCCCCCCCCCC(=O)O

activity coefficient (314.1 K): 1.37 ± 0.12 | activity coefficient (314.24 K): 1.36 ± 0.11 | activity coefficient (333.38 K): 1.28 ± 0.11 | activity coefficient (353.25 K): 1.2 ± 0.1 | activity coefficient (353.3 K): 1.21 ± 0.1
SMILES: CCOC(C)=O [ethyl acetate] + CCCCCCCCCCCC(=O)O

activity coefficient (314.1 K): 1.24 ± 0.1 | activity coefficient (314.24 K): 1.21 ± 0.1 | activity coefficient (333.26 K): 1.19 ± 0.099 | activity coefficient (333.38 K): 1.19 ± 0.099 | activity coefficient (353.25 K): 1.13 ± 0.094 | activity coefficient (353.3 K): 1.12 ± 0.093
SMILES: CCOC(C)=O [ethyl acetate] + CCCCCCCCCCCCCC(=O)O

activity coefficient (314.1 K): 1.33 ± 0.11 | activity coefficient (314.24 K): 1.35 ± 0.11 | activity coefficient (333.26 K): 1.17 ± 0.097 | activity coefficient (333.38 K): 1.16 ± 0.096 | activity coefficient (353.25 K): 1.05 ± 0.087 | activity coefficient (353.3 K): 1.04 ± 0.085
SMILES: CCC(C)O (configuration not stated) [butan-2-ol] + CCCCCCCCCC(=O)O

activity coefficient (340.17 K): 2.09 ± 0.18 | activity coefficient (347.93 K): 1.94 ± 0.17 | activity coefficient (358.23 K): 1.8 ± 0.15
SMILES: CO [methanol] + CCCCCCCCCCCCCCCC(=O)O

activity coefficient (340.19 K): 1.74 ± 0.15 | activity coefficient (348.01 K): 1.63 ± 0.14 | activity coefficient (358.32 K): 1.5 ± 0.13
SMILES: CCCO [propan-1-ol] + CCCCCCCCCCCCCCCC(=O)O

activity coefficient (314.1 K): 1.39 ± 0.12 | activity coefficient (314.24 K): 1.42 ± 0.12 | activity coefficient (333.26 K): 1.3 ± 0.11 | activity coefficient (333.38 K): 1.3 ± 0.11 | activity coefficient (353.25 K): 1.19 ± 0.099 | activity coefficient (353.3 K): 1.19 ± 0.099
SMILES: CC(C)O [propan-2-ol] + CCCCCCCCCCCCCC(=O)O

activity coefficient (314.24 K): 1.92 ± 0.17 | activity coefficient (333.26 K): 1.73 ± 0.15 | activity coefficient (333.38 K): 1.71 ± 0.15 | activity coefficient (338.29 K): 2 ± 0.17 | activity coefficient (353.3 K): 1.56 ± 0.13 | activity coefficient (358.31 K): 1.6 ± 0.14
SMILES: CO [methanol] + CCCCCCCCCCCCCC(=O)O

activity coefficient (340.19 K): 1.93 ± 0.17 | activity coefficient (348.01 K): 1.8 ± 0.15 | activity coefficient (358.23 K): 1.62 ± 0.14
SMILES: CCO [ethanol] + CCCCCCCCCCCCCCCC(=O)O

activity coefficient (314.1 K): 1.17 ± 0.097 | activity coefficient (314.24 K): 1.21 ± 0.1 | activity coefficient (333.26 K): 1.12 ± 0.093 | activity coefficient (333.38 K): 1.11 ± 0.092 | activity coefficient (353.25 K): 1.05 ± 0.087 | activity coefficient (353.3 K): 1.04 ± 0.086
SMILES: CCC(C)O (configuration not stated) [butan-2-ol] + CCCCCCCCCCCCCC(=O)O
